Test results reported in article PMC11272598, “RG7774 (Vicasinabin), an orally bioavailable cannabinoid receptor 2 (CB2R) agonist, decreases retinal vascular permeability, leukocyte adhesion, and ocular inflammation in animal models” (Frontiers in Pharmacology, 2024).

Tests used:
[1] = biological target: T1, endogenous CB2R in human Jurkat cells (Homo sapiens, UniProt P34972); assay: Competition binding, [^3H]-RO6753361, Jurkat cell membranes
T1 construct: endogenous CB2R in human Jurkat cells; endogenous in cells; host or cells: Jurkat cells
T1 sequence (P34972 whole entry): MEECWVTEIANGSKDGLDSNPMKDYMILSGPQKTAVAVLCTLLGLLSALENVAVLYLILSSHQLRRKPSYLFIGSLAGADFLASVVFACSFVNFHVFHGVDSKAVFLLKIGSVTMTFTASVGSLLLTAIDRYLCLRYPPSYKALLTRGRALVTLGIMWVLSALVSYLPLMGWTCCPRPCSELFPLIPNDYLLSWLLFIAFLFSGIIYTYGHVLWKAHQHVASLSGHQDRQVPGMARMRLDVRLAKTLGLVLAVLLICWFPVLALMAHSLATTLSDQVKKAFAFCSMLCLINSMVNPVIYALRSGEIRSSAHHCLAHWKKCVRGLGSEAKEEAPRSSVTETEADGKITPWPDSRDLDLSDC
Procedure: Competition and saturation binding assays were performed using the radiolabeled CB1R/CB2R agonist [^3H]-CP55940 (PerkinElmer, Waltham, MA, United States) in recombinant cell systems, and the newly developed CB2R-selective agonist [^3H]-RO6753361 ([Chicca et al., 2024]) in cells expressing endogenous CB1R/CB2R. Competition assays were conducted by incubating 5, 40, or 40 µg of membrane protein from CHO cells, Jurkat cells or spleen cells, respectively, with 1.5 nM [^3H]-CP55940 or 1.5 nM [^3H]-RO6753361 in the presence or absence of increasing concentrations of ligand (RG7774 or control) for 2 h at 30°C in a final volume of 0.2 mL of assay buffer (50 mmol/L Tris-HCl, 5 mmol/L MgCl2, 2.5 mmol/L EDTA, and 0.5% fatty acid-free BSA [pH 7.4] and 1% DMSO), with gentle shaking. Saturation binding assays were conducted by incubating 1–3 μg, 40 μg, or 30–40 μg of membrane protein from CHO cells, Jurkat cells, or spleen tissue, respectively, with 12 concentrations in the range of 80–0.039 nM [^3H]-CP55940 or [^3H]-RO6753361 for 2 h at 30°C in a final volume of 0.2 mL/well of assay buffer without DMSO. […] IC50 values and Hill slopes were determined with a 4-parameter logistic model using ActivityBase (ID Business Solution, Guilford, United Kingdom) and pKi values were determined using the Cheng-Prusoff equation ([Cheng and Prusoff, 1973]).

[2] = biological target: T2, Mouse MAGL (Mus musculus, UniProt O35678); assay: Mouse MAGL assay (brain); format: biochemical; settings: RG7774 10 µM; read-out: Mean ± SEM % inhibition of control, Mouse MAGL
T2 construct: Mouse brain or human U937 cell extracts (ATCC, Manassas, VI, USA); from tissue; host or cells: mouse brain, 100,000 g supernatant
T2 sequence (O35678 whole entry): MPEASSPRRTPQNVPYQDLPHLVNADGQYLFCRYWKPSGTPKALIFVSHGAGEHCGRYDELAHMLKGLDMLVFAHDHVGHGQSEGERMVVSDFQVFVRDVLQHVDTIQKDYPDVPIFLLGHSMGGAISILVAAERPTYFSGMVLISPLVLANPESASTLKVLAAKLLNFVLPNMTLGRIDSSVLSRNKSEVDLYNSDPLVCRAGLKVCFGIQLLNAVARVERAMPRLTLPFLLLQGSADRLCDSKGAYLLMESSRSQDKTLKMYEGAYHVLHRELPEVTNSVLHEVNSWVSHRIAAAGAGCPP
Procedure: (§1) The final supernatant was incubated with [^3H]-2-OG (10 µM) (ARC, MO, USA) at 37°C for 30 min as previously described, and reactions were stopped with a 2:1 (v/v) mixture of chloroform/methanol. [^3H]-glycerol release in the aqueous phase was measured by scintillation counting. […] Human supernatant (100 µg) was preincubated for 15 min at RT with 8 different concentrations of RG7774 (0.1-500 µM) in the incubation medium.

[3] = tested on: sigma (non-selective) (h); assay: CEREP radioligand binding; design: species or system human; settings: radioligand [^3H]-DTG
Text: Supplement Table1.docx, table 3: Supplementary Table S3. RG7774 binding to non-CB1R/CB2R receptors, ion channels, transporters, and enzymes (CEREP, Celle l’Evescault, France; http://www.cerep.fr). | column: % inhibition of control SB (n = 2)

[4] = biological target: Mouse CB1R (Mus musculus, UniProt P47746); assay: Competitive binding assay in mouse brain membranes, [^3H]-CP55940; design: mouse brain membranes expressing endogenous CB1R; from tissue; host or cells: mouse brain membranes; settings: RG7774 10 µM; read-out: Mean ± SEM % inhibition of control, Mouse CB1R (competitive binding assay)
Chain of Mouse CB1R (P47746 whole entry): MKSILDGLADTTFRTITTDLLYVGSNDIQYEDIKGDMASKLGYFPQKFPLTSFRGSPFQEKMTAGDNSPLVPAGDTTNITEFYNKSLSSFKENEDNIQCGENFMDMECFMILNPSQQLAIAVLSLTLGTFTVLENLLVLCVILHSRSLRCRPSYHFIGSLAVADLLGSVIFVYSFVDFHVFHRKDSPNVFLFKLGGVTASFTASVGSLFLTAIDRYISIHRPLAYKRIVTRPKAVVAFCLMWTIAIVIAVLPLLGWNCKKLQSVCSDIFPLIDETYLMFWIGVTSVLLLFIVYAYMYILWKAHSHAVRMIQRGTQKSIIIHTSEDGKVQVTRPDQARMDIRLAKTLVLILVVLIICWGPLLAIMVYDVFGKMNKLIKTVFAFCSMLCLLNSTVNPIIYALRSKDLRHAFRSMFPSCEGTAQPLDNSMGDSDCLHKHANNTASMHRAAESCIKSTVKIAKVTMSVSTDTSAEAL
Procedure: Mouse brain was resuspended in 2 mM Tris–EDTA, 320 mM sucrose, 5 mM MgCl2 (pH 7.4), homogenized using a glass potter, and centrifuged 3 times, each at 1000 g for 10 min.

[5] = pKa; format: physicochemical; settings: basic
Text: TABLE 2 Physicochemical and ADMET profile for RG7774.

[6] = biological target: T3, Human 5-LOX (Homo sapiens, UniProt P09917); assay: Human 5-LOX assay; format: biochemical; settings: RG7774 10 µM; read-out: Mean ± SEM % inhibition of control, Human 5-LOX
T3 construct: purchased Cayman Chemical Company #60402
T3 sequence (P09917 whole entry): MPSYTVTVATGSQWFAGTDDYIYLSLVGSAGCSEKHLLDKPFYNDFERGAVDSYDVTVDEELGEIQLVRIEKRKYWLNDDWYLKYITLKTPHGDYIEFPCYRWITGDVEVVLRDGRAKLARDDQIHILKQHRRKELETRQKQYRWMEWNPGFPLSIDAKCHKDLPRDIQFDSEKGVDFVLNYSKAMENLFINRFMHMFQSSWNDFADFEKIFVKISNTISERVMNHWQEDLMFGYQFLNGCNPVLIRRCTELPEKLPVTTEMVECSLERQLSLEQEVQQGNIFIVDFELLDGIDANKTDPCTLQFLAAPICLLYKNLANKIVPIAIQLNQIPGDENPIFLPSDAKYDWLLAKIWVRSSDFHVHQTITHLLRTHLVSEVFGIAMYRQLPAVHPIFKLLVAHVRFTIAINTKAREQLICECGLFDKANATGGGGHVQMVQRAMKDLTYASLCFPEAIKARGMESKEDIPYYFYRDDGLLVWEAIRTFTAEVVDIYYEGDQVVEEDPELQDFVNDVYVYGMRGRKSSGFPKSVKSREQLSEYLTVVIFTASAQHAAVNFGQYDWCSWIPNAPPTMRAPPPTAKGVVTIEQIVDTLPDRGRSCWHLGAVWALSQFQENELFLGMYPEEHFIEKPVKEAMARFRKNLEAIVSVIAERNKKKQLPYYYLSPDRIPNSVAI
Procedure: The inhibitory effects of different concentrations of RG7774 (0.1-500 µM) on the activities of human recombinant 5-LOX (Cayman Chemical Company #60402), 15-LOX (Cayman Chemical Company #10011263), and human platelet-derived 12-LOX were determined using the Biovision Lipoxygenase Activity Assay Kit (#BVN-K978-100). This kit converts the LOX substrate to an intermediate that reacted with the probe, generating a fluorescent product. The effect of RG7774 (preincubated for 15 min) at 10 µM on LOXs (5-LOX: 0.5 or 1.2 µg; 12-LOX: 20 µg; 15-LOX: 0.23 or 0.3 µg) was ascertained by adding the compounds directly to the incubation medium and the fluorescent signal, recorded at excitation/emission 500/536 nm at 30 sec intervals for 30-40 min, was directly proportional to LOX activity. […] The percentage of human 5-, 12-, and 15-LOX activity (control) was estimated from the amount of oxidized probe in the reaction using a standard curve.

[7] = biological target: T4, Human MAGL (Homo sapiens, UniProt Q99685); assay: Human MAGL assay (U937 cell extracts); format: biochemical; settings: RG7774 10 µM; read-out: Mean ± SEM % inhibition of control, Human MAGL
T4 construct: Mouse brain or human U937 cell extracts (ATCC, Manassas, VI, USA); host or cells: U937 cells, 100,000 g supernatant
T4 sequence (Q99685 whole entry): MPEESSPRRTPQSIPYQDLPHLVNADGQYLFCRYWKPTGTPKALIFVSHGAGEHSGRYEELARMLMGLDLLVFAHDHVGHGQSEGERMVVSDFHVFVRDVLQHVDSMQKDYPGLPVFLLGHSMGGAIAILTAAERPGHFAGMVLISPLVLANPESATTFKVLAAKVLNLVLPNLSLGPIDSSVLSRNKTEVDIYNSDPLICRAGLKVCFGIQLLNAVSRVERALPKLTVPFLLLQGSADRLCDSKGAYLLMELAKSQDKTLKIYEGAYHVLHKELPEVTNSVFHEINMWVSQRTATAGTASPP
Procedure: as §1

Cn1nnnc1Cn1nnc2c(N3CC[C@H](O)C3)nc(C(C)(C)C)nc21 [RG7774, (S)-1-(5-tert-butyl-3-[(1-methyl-1H-tetrazol-5-yl)methyl]-3H-[1,2,3]triazolo[4,5-d]pyrimidin-7-yl)pyrrolidin-3-ol]
Ki [1]: 31.9 ± 13.4 nM | inhibition at 10 µM [2]: 2.7 ± 11.7% | % inhibition of control SB (n = 2) [3]: –8.2% | inhibition at 10 µM [4]: 3.8% | pKa [5]: 2.63 | inhibition at 10 µM [6]: -20.5% | inhibition at 10 µM [7]: -9.7%
